For one assay, the system named is endogenous GPR55 (HeLa). In words: LPI-induced ERK/p38 phosphorylation in shCTRL-HeLa clones (Western blot). The class given is cell-based, human. Conditions: 10 µM soybean LPI, 10 min, mean of three independent experiments. Here is the method:
For stable interference of GPR55, HeLa cells were plated at 1.5 × 10^5 cells/well in six-well plates in growth medium without antibiotics, and 24 h later, the cells were transfected with 1.7 µg/well OmicsLink short hairpin (sh)RNA expression clone CSHCTR001-CU6 (shCTRL) or clone HSH022476-3-CU6 (shGPR55) from GeneCopoeia (Rockville, MD, USA), using Lipofectamine 2000, according the manufacturer instructions. Forty-eight hours after transfection, HeLa clones stably expressing shRNAs were selected in growth medium containing 0.3 µg/mL puromycin. The efficiency of interference was monitored by real-time PCR using the primers listed in the Additional file 1: Table S1. HPRT1 was followed as a housekeeping gene.
Twenty-four hours after transfection (HEK293T, HeLa cells or clones) or 72 h after interference (RAW264.7 cells), the cells were washed twice with HBSS^++, serum deprived (HEK293T cells for 4 h in DMEM; HeLa cells and clones for 2 h in MEM plus 2 mM glutamine and 25 mM HEPES; RAW264.7 cells for 2 h in DMEM), washed once again with HBSS^++, incubated in stimulation buffer (HBSS^++ with 10 mM HEPES, 0.4% faf-BSA for HEK293T cells; HBSS^++ with 25 mM HEPES and 0.01% faf-BSA for HeLa cells, clones, and RAW264.7 cells) in the absence or presence of stimuli, at 37 °C for the indicated times. Incubations were terminated by washing the cells twice with cold HBSS^++, and the analyses were performed as reported below.
Cell lysates were obtained by scraping the cells into phospho-lysis buffer: 50 mM Tris–HCl, pH 7.5, 100 mM NaCl, 5 mM EDTA, 1% Triton X-100, 50 mM NaF, 40 mM β-glycerophosphate, 200 µM sodium orthovanadate, plus protease and phosphatase inhibitors (Roche). Following gentle homogenisation by 20 passages through a 26-gauge needle, the lysates were centrifuged at 10,000×g for 5 min at 4 °C, and the supernatants were collected.
Protein lysates were subjected to SDS-PAGE, and after electrophoresis, the proteins were transferred to a nitrocellulose membrane (PerkinElmer Life Science, Boston, MA, USA). For immunoblotting, the membranes were blocked with 5% non-fat milk in TBS (10 mM Tris–HCl, pH 7.4, 10 mM NaCl) plus 0.1% Tween-20 (T-TBS) for 30 min at room temperature, and incubated with primary antibodies in T-TBS plus 3% BSA for 2 h at room temperature, or overnight at 4 °C. The membranes were washed twice in T-TBS for 7 min, and then incubated with secondary antibodies conjugated to horseradish peroxidase (1:5,000) (Calbiochem, San Diego, CA, USA) in T-TBS with 5% non-fat milk for 30 min at room temperature. The membranes were then washed twice with T-TBS and once with TBS for 5 min, and the signals were detected by ECL (Amersham Pharmacia, Piscataway, NJ, USA). The rabbit anti-phospho AKT (Ser473), anti-phospho p38 (Thr180/Tyr182), anti-phospho p42/44 (Thr202/Tyr204), anti-p38 (all at dilution 1:1000) were from Cell Signaling Technology (Danvers, MA, USA). The rabbit anti-AKT (B-1), and anti-p42/44 (ERK1; K-23) were from Santa Cruz Biotechnology.

The test system of assay [1] is HA-GPR55 in HEK293T cells. The assay is described as follows: LPI-induced ERK1/2 activation in GPR55-transfected HEK293T cells. The class given is cell-based, human. To be noted: 10 µM LPI. From the text: The construct of haemagglutinin (HA)-tagged human GPR55 in pcDNA3 (HA-GPR55) was a gift from Prof. K. Mackie, Indiana University, Bloomington, IN, USA [39], while the construct ss-3 × HA-GPR55 in pcDNA3.1 (ssGPR55) with a triple HA tag at the N-terminus and an optimised signal sequence (ss, derived from amino acids 1–33 of the human growth hormone: […]) for efficient surface expression was from Prof. A. Irving, Dundee University, UK [40]. For both constructs, mutations were introduced by site-directed mutagenesis using QuickChange kits (Stratagene, La Jolla, CA, USA), according to the manufacturer instructions. The primers for the K80A mutation were 5′-[…]-3′ and 5′-[…]-3′ (Tm, 70.6 °C), and for Q87A were 5′-[…]-3′ and 5′-[…]-3′ (Tm, 73.1 °C).
For GPR55 overexpression, HEK293T cells were plated in their growth medium without antibiotics at 2.6 × 10^5 cells/well in 12-well plates, and 24 h later, the cells were transfected with 1 µg cDNA/well using Lipofectamine 2000, according to the manufacturer instructions. The pcDNA3 empty vector or that coding for human HA-GPR55 wild-type or its mutants HA-GPR55-K80A and HA-GPR55-Q87A were used.
Twenty-four hours after transfection (HEK293T, HeLa cells or clones) or 72 h after interference (RAW264.7 cells), the cells were washed twice with HBSS^++, serum deprived (HEK293T cells for 4 h in DMEM; HeLa cells and clones for 2 h in MEM plus 2 mM glutamine and 25 mM HEPES; RAW264.7 cells for 2 h in DMEM), washed once again with HBSS^++, incubated in stimulation buffer (HBSS^++ with 10 mM HEPES, 0.4% faf-BSA for HEK293T cells; HBSS^++ with 25 mM HEPES and 0.01% faf-BSA for HeLa cells, clones, and RAW264.7 cells) in the absence or presence of stimuli, at 37 °C for the indicated times. […]
Protein lysates were subjected to SDS-PAGE, and after electrophoresis, the proteins were transferred to a nitrocellulose membrane (PerkinElmer Life Science, Boston, MA, USA). […] The membranes were then washed twice with T-TBS and once with TBS for 5 min, and the signals were detected by ECL (Amersham Pharmacia, Piscataway, NJ, USA). […]

Consider one substance from article PMC8073907, “Peptide targeting of lysophosphatidylinositol-sensing GPR55 for osteoclastogenesis tuning” (Cell Communication and Signaling : CCS, 2021).

Regarding lysophosphatidylinositol [LPI], in the assay on endogenous GPR55 (HeLa), the “ERK2 phosphorylation upon LPI stimulation” value is 7.8 -fold basal levels and the “p38 phosphorylation upon LPI stimulation” value is reported as 2.5 -fold basal levels. In assay [1] (HEK293T with HA-GPR55 wild-type, K80A or Q87A), the “activation kinetics of ERK1/2” value is “comparable activation kinetics of ERK1/2 in all of the transfectants”. In addition, the “ERK1/2 phosphorylation, GPR55-transfected and empty-vector-transfected cells” value in assay [1] (HEK293T) is given as “increased phosphorylation of ERK1/2”.
